Experimental data published in publication PMC7867136, “Anti-Infective and Anti-Inflammatory Mode of Action of Peptide 19-2.5” (International Journal of Molecular Sciences, 2021).

System: Salmonella minnesota strain R60 bacteria on human mononuclear cells
Assay: TNFα secretion by human mononuclear cells exposed to whole bacteria
Type: cell-based
Details: 10^6/ml Salmonella minnesota R60; antibiotics alone, or Pep19-2.5 added to ceftriaxone or ciprofloxacin; Figure 5
Description: Mononuclear cells (MNC) were isolated from heparinized blood samples obtained from healthy donors as described previously [1, 24]. […] For stimulation, 200 μL MNC (1 × 10^6 cells) in RPMI medium supplemented with PS/Glu2% (penicillin/streptomycin/glutamine, Biochrome, Berlin, Germany) plus AB serum (4%) was transferred into the wells of a 96-well culture plate.
The formulations to be tested for stimulation were preincubated for 30 min at 37 °C and added to the cultures at 20 μL per well. The cultures were incubated for 4 h at 37 °C with 5% CO2. Supernatants were collected after centrifugation of the culture plates for 10 min at 400× g and stored at 20 °C until immunological determination of tumor necrosis factor alpha (TNF-α), carried out with a sandwich enzyme-linked immunosorbent assay (ELISA) using a monoclonal antibody against TNF (BD Biosciences, Heidelberg, Germany) as described previously in detail [1]. In the case of the stimulation by the TNFα receptor, interleukin-8 in the supernatants was determined immunologically.

## CO/N=C(\C(=O)N[C@@H]1C(=O)N2C(C(=O)O)=C(CSc3nc(=O)c(=O)[nH]n3C)CS[C@H]12)c1csc(N)n1 [ceftriaxone]
  Influence on TNFα release from hMNC exposed to whole bacteria: only marginally influence the cytokine release
